Test results: patent publication US12391669B2, “Substituted pyrimidines as IRE1 kinase inhibitors” (THE REGENTS OF THE UNIVERSITY OF CALIFORNIA, priority 2018, dated 2025)
Where two headings read alike, the source gives them in different places.

Columns and labels:
Assay type in all cases: biochemical
[1] = biological target: IRE1α kinase (Homo sapiens (Human), UniProt O75460); assay: IRE1α kinase IC50
[2] = biological target: IRE1α RNase (Homo sapiens (Human), UniProt O75460); assay: IRE1α RNase IC50
IRE1α RNase, sequence (O75460 19-977): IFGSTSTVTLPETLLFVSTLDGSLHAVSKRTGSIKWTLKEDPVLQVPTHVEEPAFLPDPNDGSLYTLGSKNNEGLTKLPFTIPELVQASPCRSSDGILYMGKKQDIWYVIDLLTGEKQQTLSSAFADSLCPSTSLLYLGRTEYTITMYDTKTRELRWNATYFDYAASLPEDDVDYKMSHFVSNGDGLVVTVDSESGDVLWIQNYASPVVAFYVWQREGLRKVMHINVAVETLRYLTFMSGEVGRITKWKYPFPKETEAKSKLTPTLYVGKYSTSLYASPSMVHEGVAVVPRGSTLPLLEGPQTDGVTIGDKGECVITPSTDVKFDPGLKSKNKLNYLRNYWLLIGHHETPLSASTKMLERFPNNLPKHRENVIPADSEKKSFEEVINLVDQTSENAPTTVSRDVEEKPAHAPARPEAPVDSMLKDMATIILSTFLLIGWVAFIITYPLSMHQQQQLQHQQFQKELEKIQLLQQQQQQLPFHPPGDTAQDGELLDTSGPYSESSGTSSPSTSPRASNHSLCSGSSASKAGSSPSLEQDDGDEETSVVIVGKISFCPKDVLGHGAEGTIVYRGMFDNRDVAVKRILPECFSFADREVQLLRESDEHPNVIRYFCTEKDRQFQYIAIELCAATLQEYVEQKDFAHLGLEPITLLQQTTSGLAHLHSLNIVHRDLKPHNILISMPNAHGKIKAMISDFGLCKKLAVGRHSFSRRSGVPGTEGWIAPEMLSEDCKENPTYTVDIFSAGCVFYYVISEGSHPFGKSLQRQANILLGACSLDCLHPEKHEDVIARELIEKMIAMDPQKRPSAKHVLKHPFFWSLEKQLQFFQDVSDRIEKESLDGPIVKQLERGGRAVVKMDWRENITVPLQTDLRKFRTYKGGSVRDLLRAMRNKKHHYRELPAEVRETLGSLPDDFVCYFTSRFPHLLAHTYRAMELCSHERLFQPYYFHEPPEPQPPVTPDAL

[3] = biological target: IRE1β kinase (Homo sapiens (Human), UniProt Q76MJ5); assay: IRE1β kinase IC50
IRE1β kinase, sequence (Q76MJ5 35-926): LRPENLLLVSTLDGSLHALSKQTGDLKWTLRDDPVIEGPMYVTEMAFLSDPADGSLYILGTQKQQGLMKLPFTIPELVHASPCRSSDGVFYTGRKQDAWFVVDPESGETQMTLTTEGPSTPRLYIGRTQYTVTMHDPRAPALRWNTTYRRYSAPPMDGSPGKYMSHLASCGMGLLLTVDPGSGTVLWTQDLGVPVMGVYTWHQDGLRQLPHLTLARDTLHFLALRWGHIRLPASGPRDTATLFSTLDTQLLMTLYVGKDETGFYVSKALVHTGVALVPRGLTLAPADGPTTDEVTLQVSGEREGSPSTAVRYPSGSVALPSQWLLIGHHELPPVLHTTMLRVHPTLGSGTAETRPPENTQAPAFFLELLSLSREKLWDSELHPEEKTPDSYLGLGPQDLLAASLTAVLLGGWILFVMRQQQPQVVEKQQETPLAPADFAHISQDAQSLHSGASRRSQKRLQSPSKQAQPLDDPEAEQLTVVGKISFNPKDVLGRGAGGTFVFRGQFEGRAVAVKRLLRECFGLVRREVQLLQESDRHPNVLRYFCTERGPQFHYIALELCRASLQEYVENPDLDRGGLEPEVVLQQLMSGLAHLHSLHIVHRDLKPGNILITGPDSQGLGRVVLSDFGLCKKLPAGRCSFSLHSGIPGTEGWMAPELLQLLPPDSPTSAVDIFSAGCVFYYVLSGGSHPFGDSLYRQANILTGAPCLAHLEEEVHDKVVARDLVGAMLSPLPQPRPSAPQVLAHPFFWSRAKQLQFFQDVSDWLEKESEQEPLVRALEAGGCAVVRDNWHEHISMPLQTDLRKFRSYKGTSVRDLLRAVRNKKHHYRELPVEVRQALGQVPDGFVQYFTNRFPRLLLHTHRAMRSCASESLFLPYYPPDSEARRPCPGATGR

IRE1α kinase, sequence (O75460 19-977): as the sequence (O75460 19-977) above

Compound | IC50 ([1]; (HF)) [nM] | IC50 ([2]; (HF)) [nM] | IC50 [3] [nM] | IC50 [1] [nM] | other results
O=S(=O)(Cc1ccccc1Cl)Nc1ccc(Oc2ncsc2-c2ccnc(N[C@H]3CCCNC3)n2)cc1F [compound 11, (S)-1-(2-chlorophenyl)-N-(2-fluoro-4-(5-(2-(piperidin-3-ylamino)pyrimidin-4-yl)thiazol-4-yloxy)phenyl)methane sulfonamide] | 119 | 24 | – | – | –
Cc1ccc(C(=O)Nc2ccccc2Cl)cc1Oc1ncsc1-c1ccnc(N[C@H]2CCCNC2)n1 [compound 16, (S)—N-(2-chlorophenyl)-4-methyl-3-(5-(2-(piperidin-3-ylamino)pyrimidin-4-yl)thiazol-4-yloxy)benzamide] | 307 | – | > 10000 | – | IC50 ([1]; (RB)): 228 nM
Cc1ccc(C(=O)NCc2ccccc2Cl)cc1Oc1ncsc1-c1ccnc(N[C@H]2CCCNC2)n1 [compound 20, (S)—N-(2-chlorobenzyl)-4-methyl-3-(5-(2-(piperidin-3-ylamino)pyrimidin-4-yl)thiazol-4-yloxy) benzamide] | 55 | – | – | – | IRE1α RNase IC50 ([2]; result in words, pIRE1α): No inhibition of pIRE1α
O=S(=O)(Nc1ccc(Oc2ncsc2-c2ccnc(N[C@H]3CCCNC3)n2)cc1F)c1ccccc1Cl [compound 25] | – | 46 | 32 | 117 | –
c1ccc2[nH]c(Cc3ccc(Oc4ncsc4-c4ccnc(N[C@H]5CCCNC5)n4)cc3)nc2c1 [compound 30, (S)-4-(4-(4-((1H-benzo[d]imidazol-2-yl)methyl)phenoxy)thiazol-5-yl)-N-(piperidin-3-yl)pyrimidin-2-amine] | – | – | 8400 | 439 | IC50 [2]: 118 nM
c1cc(Cc2nc3ccccc3[nH]2)cc(Oc2ncsc2-c2ccnc(N[C@H]3CCCNC3)n2)c1 [compound 35, (S)-4-(4-(3-((1H-benzo[d]imidazol-2-yl)methyl)phenoxy)thiazol-5-yl)-N-(piperidin-3-yl)pyrimidin-2-amine] | – | 153 | – | – | –
Cc1cc(NS(=O)(=O)c2ccccc2Cl)ccc1Oc1ncsc1-c1ccnc(N[C@H]2CCCNC2)n1 [compound 39] | 1140 | – | – | – | –
O=S(=O)(NCc1cccc(Oc2ncsc2-c2ccnc(N[C@H]3CCCNC3)n2)c1)c1ccccc1Cl [compound 43, (S)-2-chloro-N-(3-(5-(2-(piperidin-3-ylamino)pyrimidin-4-yl)thiazol-4-yloxy)benzyl)benzenesulfonamide] | 1600 | – | – | – | –
O=S(=O)(Nc1cccc2c(Oc3ncsc3-c3ccnc(N[C@H]4CCCNC4)n3)cccc12)c1ccccc1Cl [compound 47, (S)-2-chloro-N-(5-(5-(2-(piperidin-3-ylamino)pyrimidin-4-yl)thiazol-4-yloxy)naphthalen-1-yl)benzenesulfonamide] | – | 8.3 | 181 | 10 | –
O=C(NCc1ccccc1Cl)c1cccc(Oc2ncsc2-c2ccnc(N[C@H]3CCCNC3)n2)c1 [compound 51, (S)—N-(2-chlorobenzyl)-3-(5-(2-(piperidin-3-ylamino)pyrimidin-4-yl)thiazol-4-yloxy)benzamide] | 524 | – | – | – | –
Cc1ccc(C(=O)N(C)Cc2ccccc2Cl)cc1Oc1ncsc1-c1ccnc(N[C@H]2CCCNC2)n1 [compound 55, (S)—N-(2-chlorobenzyl)-N,4-dimethyl-3-(5-(2-(piperidin-3-ylamino)pyrimidin-4-yl)thiazol-4-yloxy)benzamide] | 3180 | – | – | – | –
Cc1nc(Oc2ccc(NS(=O)(=O)c3ccccc3Cl)c3ccccc23)c(-c2ccnc(N[C@H]3CCCNC3)n2)s1 [compound 67, (S)-2-chloro-N-(4-(2-methyl-5-(2-(piperidin-3-ylamino)pyrimidin-4-yl)thiazol-4-yloxy)naphthalen-1-yl)benzenesulfonamide] | 63 | 19 | – | – | –
O=S(=O)(Cc1ccccc1Cl)Nc1ccc(Oc2nccnc2-c2ccnc(N[C@H]3CCCNC3)n2)cc1F [compound 73, (S)-1-(2-chlorophenyl)-N-(2-fluoro-4-(3-(2-(piperidin-3-ylamino)pyrimidin-4-yl)pyrazin-2-yloxy)phenyl) methane sulfonamide] | – | – | 1570 | 961 | –
O=S(=O)(Nc1ccc(Oc2nccnc2-c2ccnc(N[C@H]3CCCNC3)n2)cc1F)c1ccccc1Cl [compound 77, (S)-2-chloro-N-(2-fluoro-4-(3-(2-(piperidin-3-ylamino)pyrimidin-4-yl)pyrazin-2-yloxy)phenyl)benzenesulfonamide] | – | – | 2100 | 6200 | –
O=S(=O)(Nc1ccc(Oc2nccnc2-c2ccnc(N[C@H]3CCCNC3)n2)c2ccccc12)c1ccccc1Cl [compound 84, (S)-2-chloro-N-(4-(3-(2-(piperidin-3-ylamino)pyrimidin-4-yl)pyrazin-2-yloxy)naphthalen-1-yl)benzenesulfonamide] | – | – | 1980 | 296 | –
c1ccc2[nH]c(Cc3ccc(Oc4nccnc4-c4ccnc(N[C@H]5CCCNC5)n4)cc3)nc2c1 [compound 88, (S)-4-(3-(4-((1H-benzo[d]imidazol-2-yl)methyl)phenoxy)pyrazin-2-yl)-N-(piperidin-3-yl)pyrimidin-2-amine] | – | – | > 10000 | 7300 | –
Cc1ccc2c(NS(=O)(=O)c3ccccc3Cl)cccc2c1Oc1nccnc1-c1ccnc(N[C@H]2CCCNC2)n1 [compound 96] | – | 117 | 120 | 98 | –
